Converted amounts (≈) assume the structure as drawn. Where two headings read alike, the source gives them in different places.
Tests used:
[1] = tested on: Mycobacterium tuberculosis test strain H375RV; assay: Growth inhibition of Mycobacterium tuberculosis in liquid culture; format: cell-based; conditions: for antibiotic activity against Mycobacterium tuberculosis: clinical isolates and reference strains
Procedure: Using the standard Mycobacterium tuberculosis test strain H375RV, it could be shown that thuggacin A inhibited growth at or below 8 μg/mL in liquid culture.
For tests of the biological activity, preferably aqueous compositions of the thuggacins according to the present invention were used separately in an aqueous composition comprising 10 mM acetic acid for stabilisation.

Micrococcus luteus [2] = assay: Inhibition of oxygen demand/consumption of Micrococcus luteus in liquid culture; format: cell-based; conditions: initial studies
Mycobacterium phlei = assay: Agar diffusion test; format: cell-based; conditions: Mycolicibacterium phlei, read-out: Diameter of inhibition zone
Procedure: (§1) In an agar diffusion test using 10 μg of the compound per disc, the following inhibition was found: […]

Corynebacterium fascians = assay: Agar diffusion test; format: cell-based; conditions: Rhodococcoides fascians, read-out: Diameter of inhibition zone
Procedure: as §1

Micrococcus luteus [3] = assay: Agar diffusion test; format: cell-based; conditions: read-out: Diameter of inhibition zone
Procedure: as §1

[4] = tested on: mouse fibroblast cells (L929); assay: Sensitivity of cultivated mouse fibroblast cells
[5] = tested on: NADH oxidation of crude cytoplasmic membrane fractions; assay: Inhibition of NADH oxidation of crude cytoplasmic membrane fractions; format: biochemical; conditions: initial studies using Micrococcus luteus
[6] = Stability / rearrangement of thuggacins in protic solvent; format: physicochemical; conditions: for stability in aqueous solution: optionally comprising a C1-C2 alcohol
Procedure: Starting from 8 mg/mL thuggacin A, an equilibrium of thuggacin A, thuggacin-B and thuggacin C could be found after approximately 96 hours. In general, the reaction time for reaching the equilibrium can vary over a broad range, e.g. from 1 to 20 days. Re-crystallized thuggacin of high purity is nearly stable, i.e. undergo rearrangement only very slowly. Thuggacin A having a lower purity will undergo rearrangement to thuggacin B and C with increased reaction rates. Similar stabilities have been observed for the rearrangement reaction of thuggacin cmc-A to thuggacin cmc-B and cmc-C.

[7] = tested on: Micrococcus luteus, Mycobacterium phlei and M. chitae; assay: MIC in liquid culture

## C/C=C(C)/C=C(\C)C(O)C(C)C(O)C(O)C1C/C=C(C)\C=C\C(O)CC(O)C(C)c2nc(cs2)/C=C(\CCCCCC)C(=O)O1 (centres unmarked) [13-methyl thuggacin A]
[1]
  antibiotic activity against Mycobacterium tuberculosis: antibiotic activity

## C/C=C(C)/C=C(\C)C(O)C(C)C(O)C(O)C1C/C=C\C=C\C(O)CC(O)C(C)c2nc(cs2)/C=C(\CCCCCC)C(=O)O1 (centres unmarked) [thuggacin A]
Micrococcus luteus [2]
  inhibition of oxygen consumption: almost completely
Mycobacterium phlei; 10 μg of compound per disc, Mycobacterium phlei
  zone of inhibition at 10 µg/disc: 20 mm
Corynebacterium fascians; 10 μg of compound per disc, Corynebacterium fascians, figures in parentheses indicate an incomplete inhibition
  zone of inhibition at 10 µg/disc: 30 mm
Micrococcus luteus [3]; 10 μg of compound per disc
  zone of inhibition at 10 µg/disc: 29 mm
[4]
  IC50: 4 µg/mL (≈ 6.33 µM)
[1]
  antibiotic activity against Mycobacterium tuberculosis: antibiotic activity
[1]; liquid culture, strain H375RV
  concentration inhibiting growth: ≤ 8 µg/mL
[5]
  oxidation of NADH and of reduced cytochrome c: reduced
[6]
  stability in aqueous solution: not stable
[6]; starting from 8 mg/mL thuggacin A, aqueous composition optionally including methanol (FIG. 1: methanol)
  time to equilibrium of thuggacin A, thuggacin B and thuggacin C: approximately 96 hours
[7]
  relative effectiveness in liquid culture MIC experiments: most effective

## C/C=C(C)/C=C(\C)C(O)C(C)C(O)C1OC(=O)/C(CCCCCC)=C/c2csc(n2)C(C)C(O)CC(O)/C=C/C=C\CC1O (centres unmarked) [thuggacin B]
[4]
  IC50: 8 µg/mL (≈ 12.7 µM)
[1]
  antibiotic activity against Mycobacterium tuberculosis: antibiotic activity
[6]
  stability in aqueous solution: not stable
[7]
  relative effectiveness in liquid culture MIC experiments: most effective

## C/C=C(C)/C=C(\C)C(O)C(C)C1OC(=O)/C(CCCCCC)=C/c2csc(n2)C(C)C(O)CC(O)/C=C/C=C\CC(O)C1O (centres unmarked) [thuggacin C]
[1]
  antibiotic activity against Mycobacterium tuberculosis: antibiotic activity
[7]
  relative effectiveness in liquid culture MIC experiments: less effective against certain bacteria

## C/C=C(C)/C=C(\C)CC(C)C(O)C(O)C1C/C=C\C=C\C(O)CC(O)C(CO)c2nc(cs2)/C=C(\C)C(=O)O1 (centres unmarked) [thuggacin cmc-A]
Mycobacterium phlei
  zone of inhibition at 10 µg/disc: 24 mm
Corynebacterium fascians
  zone of inhibition at 10 µg/disc: 47 mm
Micrococcus luteus [3]
  zone of inhibition at 10 µg/disc: 46 mm
[7]
  relative effectiveness in liquid culture MIC experiments: most effective

## C/C=C(C)/C=C(\C)CC(C)C(O)C1OC(=O)/C(C)=C/c2csc(n2)C(CO)C(O)CC(O)/C=C/C=C\CC1O (centres unmarked) [thuggacin cmc-B]
[7]
  relative effectiveness in liquid culture MIC experiments: most effective

## C/C=C(C)/C=C(\C)CC(C)C1OC(=O)/C(C)=C/c2csc(n2)C(CO)C(O)CC(O)/C=C/C=C\CC(O)C1O (centres unmarked) [thuggacin cmc-C]
Mycobacterium phlei
  zone of inhibition at 10 µg/disc: 22 mm
Corynebacterium fascians
  zone of inhibition at 10 µg/disc: 44 mm
Micrococcus luteus [3]
  zone of inhibition at 10 µg/disc: 44 mm
